{"source": "patent US12384775B2", "about": "“Pyrimid-2-yl-pyrazole compounds as IRAK inhibitors” (Rigel Pharmaceuticals, Inc., priority 2022, dated 2025)", "key": {"IL23p19 in THP-1 Cells": {"system": "IL23p19 in THP-1 Cells", "assay": "LPS induced IL23p19 in THP-1 cells (IFNγ primed), ELISA", "assay_type": "cell-based", "conditions": "Homo sapiens, THP-1 cells IFNγ primed, LPS 1 μg/mL, 18 h, read-out: IL23-p19 ELISA, THP1-IFNy, LPS, 10 pt EC50", "method": "On day 1, 50K/well THP-1 cells were seeded and primed with IFNγ (50 ng/mL) in 384-well plates for about 18 hours in RPMI media with 10% FBS. On day 2, the compound was serially diluted in DMSO from 5 mM in 3-fold dilutions, and then diluted 1:125 in RPMI media with 10% FBS. 50 μL/well 2× compound was added to 50 μL/well THP-1 cells (with IFNγ primed) in duplicate in 384 well tissue culture plates. The cells were pre-incubated with compound for 1 hour at 37° C., 5% CO2 before addition of 10 μL/well 11×LPS to give a final concentration of 1 μg/mL LPS. Day 3, after stimulation for 18 hours at 37° C., 5% CO2, the assay plate was centrifuged and 70 μL/well supernatant was harvested. IL-23p19 protein in 70 μL/well of supernatant was measured by sandwich ELISA, and 25 μl/well Cell Titer Glo reagent was added to the remaining cells to measure compound toxicity.\nMaxisorp immuno ELISA plates were pre-coated with 25 μL/well of anti-IL-23p19 capture antibody (2.5 ug/mL) in PBS overnight at room temperature. After washing with 1×PBST, the plates were blocked using 100 μL/well of 1% BSA in PBS for 2 hours at room temperature. The plates were washed three times with 1×PBST and 70 μL/well supernatant were added. The plates were incubated at room temperature for 2 hours with shaking and washed three times with 1×PBST. 25 μL/well of biotin labeled anti-IL-12 (p40/p70) detection antibody (100 ng/mL) in PBS with 1% BSA was added and the plates were incubated at room temperature for 2 hours with shaking. After washing three times with 1× PBST, 25 μL/well of streptavidin-HRP (1:200) in PBS with 1% BSA was added and the plates were incubated at room temperature for 20 minutes with shaking. The plates were washed three times with 1× PBST and 25 μL/well of Super Signal ELISA Pico Chemiluminescent Substrate were added. The plates were read with a luminometer, and the chemiluminescence values were entered into Athena (Rigel) for curve fitting, EC50 calculation, and database storage.\nTHP-1 cells (100K in 100 μL/well) were primed with 25 ng/mL IFN-γ for 18 hours at 37° C., 5% CO2. Compound was serially diluted in DMSO from 2.5 mM in 4-fold dilutions, and then diluted 1:125 in RPMI 1640 complete media with 10% FBS. 100 μL/well 2× compound was mixed with the 100 μL/well IFN-7 primed THP-1 in 96 well flat-bottom white tissue culture plates. The cells were pre-incubated with compound for 1 hour at 37° C., 5% CO2 and before addition of 10 μL/well 21×LPS to give a final concentration of […] for LPS. The cells were stimulated with LPS for 18 hours at 37° C., 5% CO2. After centrifugation, 100 μL/well supernatant was extracted by using a multichannel pipette. IL-23p19 or TNF-α protein in the supernatant were measured by sandwich ELISA. The remaining IFN-7 primed THP-1 cell pellets were used to perform cell viability assays to determine compound cell toxicity. The plates were read with a luminometer, and the chemiluminescence values were entered into Athena (Rigel) for curve fitting, EC50 calculation, and database storage.\nMaxisorp immuno ELISA plates were pre-coated with 100 μL/well of anti-IL-23p19 capture antibody (2.4 μg/mL) in PBS overnight at room temperature. After washing with 1×PBST, the plates were blocked using 300 μL/well of 1% BSA in PBS for 2 hours at room temperature. The plates were washed three times with 1×PBST and 100 μL/well supernatant was added. The plates were incubated at room temperature for 2 hours with shaking. The plates were washed three times with 1×PBST and 100 μL/well of biotin anti-human IL-12 (p40/70) detection antibody (10 ng/mL) in PBS with 0.1% BSA were added. The plates were incubated at room temperature for 2 hours with shaking. The plates were washed three times with 1×PBST and 100 μL/well streptavidin-HRP (1:200) in PBS with 0.1% BSA was added. The plates were incubated at room temperature for 20 minutes with shaking. […]"}, "IRAK4": {"target": "T1, IRAK4 (Homo sapiens, UniProt Q9NWZ3)", "T1 construct": "purchased Signalchem I12-10G-20", "T1 sequence (Q9NWZ3 1-460)": "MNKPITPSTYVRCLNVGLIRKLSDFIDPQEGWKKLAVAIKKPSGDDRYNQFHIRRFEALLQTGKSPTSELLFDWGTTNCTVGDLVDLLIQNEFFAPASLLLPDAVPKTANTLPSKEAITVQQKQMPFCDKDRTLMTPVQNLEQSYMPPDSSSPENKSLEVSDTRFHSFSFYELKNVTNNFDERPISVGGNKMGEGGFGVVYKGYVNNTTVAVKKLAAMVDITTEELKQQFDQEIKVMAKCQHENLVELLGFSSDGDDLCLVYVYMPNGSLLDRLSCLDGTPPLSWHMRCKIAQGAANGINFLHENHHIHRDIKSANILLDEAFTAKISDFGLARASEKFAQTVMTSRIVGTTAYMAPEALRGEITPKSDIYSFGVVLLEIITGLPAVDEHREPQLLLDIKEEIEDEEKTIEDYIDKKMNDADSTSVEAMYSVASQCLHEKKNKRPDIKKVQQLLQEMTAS", "assay": "IRAK4 ADP-Glo kinase assay", "assay_type": "biochemical", "conditions": "read-out: IRAK4 ADP-Glo Kinase, 8 pt EC50", "method": "The ADP-Glo™ reagents were thawed at ambient temperature. The Kinase Detection Reagent was prepared by mixing kinase detection buffer with the lyophilized kinase detection substrate, and set aside.\nA stock volume of 5× Reaction Kinase Buffer was made with a final concentration of 100 mM MgCl2, 200 mM Tris-HCl, and 0.5 mg/ml of BSA, in distilled H2O with a final pH7.4. A 2× working stock volume of Reaction Kinase Buffer was made containing a final concentration of 100 μM DTT.\nThe components of IRAK4 Enzyme were thawed on ice. Diluted IRAK4 in 1× Kinase Reaction Buffer (diluted from 2× buffer) was prepared at […]. A 250 μM working stock ATP Assay Solution was prepared in 1× Kinase Reaction Buffer (diluted from 2× buffer).\nThe compound was diluted in DMSO from 250 µM in 4-fold series dilutions for 8 points. Then diluted 1:5 in 2× Reaction Buffer in a 96 well plate. 1.0 μl was transferred to a 384 well plate in duplicate. […] 1 μl of 1 mg/ml stock solution of MBP substrate was added NOTE: MBP can be combined with ATP mix with equal volume and then added at 2 μl/well. Final reaction volume was 5 μl. The plate was centrifuged and the reaction mixture was incubated at room temperature for 60 minutes or at 30° C. for 30 minutes.\nThe reaction was terminated and the remaining ATP was depleted by adding 5 μl of ADP-Glo™ Reagent. The 384-well plate was centrifuged and then the reaction mixture was incubated for another 40 minutes at ambient temperature.\n10 μl of the Kinase Detection Reagent was added. The plate was centrifuged and then the reaction mixture was incubated for another 30 minutes at ambient temperature.\nThe 384-well reaction plate was read using the WALLAC plate reader (Luminescence 0.1s)."}, "IRAK1": {"target": "IRAK1 (Homo sapiens, UniProt P51617)", "sequence (P51617 whole entry)": "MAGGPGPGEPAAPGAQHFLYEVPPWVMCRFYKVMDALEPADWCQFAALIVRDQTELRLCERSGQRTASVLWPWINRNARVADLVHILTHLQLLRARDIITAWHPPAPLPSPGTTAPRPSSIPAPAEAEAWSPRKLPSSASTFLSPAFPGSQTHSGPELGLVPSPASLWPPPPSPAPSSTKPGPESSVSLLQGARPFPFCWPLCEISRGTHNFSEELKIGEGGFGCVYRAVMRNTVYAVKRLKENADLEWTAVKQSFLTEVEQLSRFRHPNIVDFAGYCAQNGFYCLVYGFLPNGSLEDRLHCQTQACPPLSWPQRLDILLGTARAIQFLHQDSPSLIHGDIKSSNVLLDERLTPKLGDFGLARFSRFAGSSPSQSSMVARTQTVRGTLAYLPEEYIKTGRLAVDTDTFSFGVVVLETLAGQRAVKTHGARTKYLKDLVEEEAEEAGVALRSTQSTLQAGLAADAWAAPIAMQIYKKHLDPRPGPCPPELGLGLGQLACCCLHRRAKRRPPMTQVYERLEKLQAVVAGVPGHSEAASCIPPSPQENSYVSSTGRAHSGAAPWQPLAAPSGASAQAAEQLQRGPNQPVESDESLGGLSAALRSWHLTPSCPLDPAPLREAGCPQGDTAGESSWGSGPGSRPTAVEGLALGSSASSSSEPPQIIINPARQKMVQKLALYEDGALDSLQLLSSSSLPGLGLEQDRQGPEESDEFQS", "assay": "IRAK1 ADP-Glo kinase assay", "assay_type": "biochemical", "conditions": "read-out: IRAK1 ADP-Glo Kinase, 8 pt EC50"}, "[1]": {"assay": "Bioavailability of prodrug I-3, mouse", "assay_type": "in vivo", "conditions": "measured as amount of parent compound I-1 detected"}, "[2]": {"assay": "Bioavailability of prodrug I-3, rat", "assay_type": "in vivo", "conditions": "measured as amount of parent compound I-1 detected"}, "[3]": {"assay": "Bioavailability of prodrug I-3, monkey", "assay_type": "in vivo", "conditions": "measured as amount of parent compound I-1 detected"}, "[4]": {"assay": "Bioavailability of prodrug I-3, dog", "assay_type": "in vivo", "conditions": "measured as amount of parent compound I-1 detected"}}, "note": "Where a name gives a salt, the structure may show the parent alone. Read-outs that look alike come from different tables or passages of the source.", "data": [{"smiles": "CCO[C@H]1CC[C@H](n2cc(NC(=O)c3csc(-c4cnn(COP(=O)(O)O)c4)n3)c(-c3ncccn3)n2)CC1", "note": "[Compound I-3, sodium (4-(4-((1-((1r,4r)-4-ethoxycyclohexyl)-3-(pyrimidin-2-yl)-1H-pyrazol-4-yl)carbamoyl)thiazol-2-yl)-1H-pyrazol-1-yl)methyl phosphate]", "values": [{"measurement": "EC50", "setting": "IL23p19 in THP-1 Cells; THP-1, 18 h", "result": 54.4, "unit": "nM"}, {"measurement": "EC50", "setting": "IRAK4", "result": 128, "unit": "nM"}, {"measurement": "EC50", "setting": "IRAK1", "result": 61.8, "unit": "nM"}, {"measurement": "Bioavailability (% F) of Compound I-3", "setting": "[1]", "result": 34, "unit": "% F"}, {"measurement": "Bioavailability (% F) of Compound I-3", "setting": "[2]", "result": 12, "unit": "% F"}, {"measurement": "Bioavailability (% F) of Compound I-3", "setting": "[3]", "result": 71, "unit": "% F"}, {"measurement": "Bioavailability (% F) of Compound I-3", "setting": "[4]", "result": 53, "unit": "% F"}]}, {"smiles": "CCO[C@H]1CC[C@H](n2cc(NC(=O)c3csc(-c4cnn(COP(=O)(O)O)c4)n3)c(-c3ncccn3)n2)CC1", "note": "[Compound I-2, (4-(4-((1-((1r,4r)-4-ethoxycyclohexyl)-3-(pyrimidin-2-yl)-1H-pyrazol-4-yl)carbamoyl)thiazol-2-yl)-1H-pyrazol-1-yl)methyl dihydrogen phosphate]", "values": [{"measurement": "EC50", "setting": "IL23p19 in THP-1 Cells", "result": 11, "unit": "nM"}, {"measurement": "EC50", "setting": "IRAK4", "result": 46.4, "unit": "nM"}, {"measurement": "EC50", "setting": "IRAK1", "result": 3910, "unit": "nM"}]}, {"smiles": "CCO[C@H]1CC[C@H](n2cc(NC(=O)c3csc(-c4cn[nH]c4)n3)c(-c3ncccn3)n2)CC1", "note": "[Compound I-4, N-(1-((1r,4r)-4-ethoxycyclohexyl)-3-(pyrimidin-2-yl)-1H-pyrazol-4-yl)-2-(1H-pyrazol-4-yl)thiazole-4-carboxamide tartaric acid salt]", "values": [{"measurement": "EC50", "setting": "IL23p19 in THP-1 Cells; THP-1, 18 h", "result": 2.5, "unit": "nM"}, {"measurement": "EC50", "setting": "IRAK4", "result": 18.8, "unit": "nM"}, {"measurement": "EC50", "setting": "IRAK1", "result": 28.1, "unit": "nM"}]}]}
